In PMC12587545, “Noncytotoxic polymyxin derivatives enhance antibiotic action against multidrug-resistant Gram-negative bacteria” (Antimicrobial Agents and Chemotherapy, 2025):
Several values for one entry are separate records, joined by “and”; a condition that tells them apart may be missing. Equal entries are not always repeated.

Assays:
[1] = system: P. aeruginosa; test: Checkerboard assay (antibiotic potentiation); format: cell-based, Pseudomonas aeruginosa; conditions: for MICantibiotic: antibiotic alone
[2] = system: A. baumannii; test: Checkerboard assay (antibiotic potentiation); format: cell-based, Acinetobacter baumannii; conditions: for MICantibiotic: antibiotic alone
[3] = system: E. coli; test: Checkerboard assay (antibiotic potentiation); format: cell-based, Escherichia coli; conditions: for Interpretation: antibiotic + compound 1; for MICantibiotic + compound: antibiotic MIC with 8 µg/mL (5 µM) compound 1; for MICantibiotic: antibiotic alone; for Potentiation: of antibiotic by 8 µg/mL (5 µM) compound 1
[4] = system: K. pneumoniae; test: Checkerboard assay (antibiotic potentiation); format: cell-based, Klebsiella pneumoniae; conditions: for Interpretation: antibiotic + compound 1; for MICantibiotic + compound: antibiotic MIC with 8 µg/mL (5 µM) compound 1; for MICantibiotic: antibiotic alone; for Potentiation: of antibiotic by 8 µg/mL (5 µM) compound 1
[5] = system: E. cloacae; test: Checkerboard assay (antibiotic potentiation); format: cell-based, Enterobacter cloacae; conditions: E. cloacae 121887 (colistin-resistant)
[6] = system: E. faecalis ATCC 29212; test: Checkerboard assay (rifampicin potentiation); format: cell-based
Description: (§1) The interaction between the compounds and the antibiotics was evaluated using the fractional inhibitory concentration (FIC) index. FIC indices of ≤0.5 is synergistic, 0.5 < × ≤ 4 is additive, whereas >4 is antagonistic ([34]). […] .
(§2) The bacterial isolates were acquired from ATCC or the Canadian Ward Surveillance (CANWARD) study ([56]). CANWARD isolates were collected from infected patients admitted to participating medical centers across Canada.
(§3) The antibiotic and compounds were serially diluted 2-fold in CAMHB along the x- and y-axis, respectively, on a 96-well plate that was subsequently incubated with equal volumes of bacterial inoculum overnight at 37°C. Wells containing only media were used as negative controls, and wells containing only bacteria were used as positive controls. Synergy was measured by the FIC index, which is the summation of the individual FICs of the antibiotic and the compound. The FIC is calculated by dividing the MIC of one agent in the presence of another by the MIC of the agent alone. Turbidity was confirmed with a Molecular Devices (United States) EMax Plus microplate reader at a wavelength of 590 nm. The FBS studies were conducted by following a previously published protocol ([29], [50]). The FBS was inactivated by heating at 56°C for 30 min with constant swirling.

[7] = system: E. faecium ATCC 27270; test: Checkerboard assay (rifampicin potentiation); format: cell-based
Description: as §1, §2, §3

[8] = system: Methicillin-resistant S. aureus ATCC 22592; test: Checkerboard assay (rifampicin potentiation); format: cell-based; conditions: MRSA ATCC 22592
Description: as §1, §2, §3

[9] = system: MDR Gram-negative bacteria clinical isolates; test: Checkerboard assay, summary over strains; format: cell-based; conditions: of all 14 clinical isolates; number (%)
[10] = E. coli 94393 (colistin-resistant)
[11] = E. coli 94474 (colistin-resistant)
[12] = K. pneumoniae 113250 (colistin-resistant)
[13] = of rifampicin by 8 µg/mL (5 µM) compound 1
[14] = rifampicin MIC with 8 µg/mL (5 µM) compound 1

CO[C@H]1/C=C/O[C@@]2(C)Oc3c(C)c(O)c4c(O)c(c(/C=N/N5CCN(C)CC5)c(O)c4c3C2=O)NC(=O)/C(C)=C\C=C\[C@H](C)[C@H](O)[C@@H](C)[C@@H](O)[C@@H](C)[C@H](OC(C)=O)[C@@H]1C [Rifampicin]
Interpretation ([1]; P. aeruginosa 259-96916, antibiotic + compound 1): Synergy (FIC indices of ≤0.5 is synergistic)
MICantibiotic + compound ([1]; P. aeruginosa 259-96916, antibiotic MIC with 8 µg/mL (5 µM) compound 1): 0.031 µg/mL
MICantibiotic ([1]; P. aeruginosa 259-96916): 16 µg/mL
Potentiation ([1]; P. aeruginosa 259-96916, of antibiotic by 8 µg/mL (5 µM) compound 1): ≥512-fold
Interpretation ([1]; P. aeruginosa 262-101856, antibiotic + compound 1): Synergy (FIC indices of ≤0.5 is synergistic)
MICantibiotic + compound ([1]; P. aeruginosa 262-101856, antibiotic MIC with 8 µg/mL (5 µM) compound 1): 2 µg/mL
MICantibiotic ([1]; P. aeruginosa 262-101856): 512 µg/mL
Potentiation ([1]; P. aeruginosa 262-101856, of antibiotic by 8 µg/mL (5 µM) compound 1): 256 fold
Interpretation ([1]; P. aeruginosa 264-105354, antibiotic + compound 1): Synergy (FIC indices of ≤0.5 is synergistic)
MICantibiotic ([1]; P. aeruginosa 264-105354): 32 µg/mL
Potentiation ([1]; P. aeruginosa 264-105354, of antibiotic by 8 µg/mL (5 µM) compound 1): ≥256-fold
Interpretation ([1]; P. aeruginosa 101243 (colistin-resistant), antibiotic + compound 1): Synergy (FIC indices of ≤0.5 is synergistic)
MICantibiotic + compound ([1]; P. aeruginosa 101243 (colistin-resistant), antibiotic MIC with 8 µg/mL (5 µM) compound 1): 2 µg/mL
MICantibiotic ([1]; P. aeruginosa 101243 (colistin-resistant)): 16 µg/mL
Potentiation ([1]; P. aeruginosa 101243 (colistin-resistant), of antibiotic by 8 µg/mL (5 µM) compound 1): 8 fold
Interpretation ([1]; P. aeruginosa 114228 (colistin-resistant), antibiotic + compound 1): Additive (0.5 < × ≤ 4 is additive)
MICantibiotic + compound ([1]; P. aeruginosa 114228 (colistin-resistant), antibiotic MIC with 8 µg/mL (5 µM) compound 1): 8 µg/mL
MICantibiotic ([1]; P. aeruginosa 114228 (colistin-resistant)): 16 µg/mL
Potentiation ([1]; P. aeruginosa 114228 (colistin-resistant), of antibiotic by 8 µg/mL (5 µM) compound 1): 2 fold
Interpretation ([1]; P. aeruginosa PAO1, antibiotic + compound 1): Synergy (FIC indices of ≤0.5 is synergistic)
Interpretation ([1]; P. aeruginosa PAO1, antibiotic + compound 3): Additive (0.5 < × ≤ 4 is additive)
MICantibiotic + compound ([1]; P. aeruginosa PAO1, antibiotic MIC with 8 µg/mL (5 µM) compound 1): 0.063 µg/mL
MICantibiotic + compound ([1]; P. aeruginosa PAO1, antibiotic MIC with 8 µg/mL (5 µM) compound 3): 32 µg/mL
MICantibiotic ([1]; P. aeruginosa PAO1): 16 µg/mL and 32 µg/mL
Potentiation ([1]; P. aeruginosa PAO1, of antibiotic by 8 µg/mL (5 µM) compound 1): ≥256-fold
Potentiation ([1]; P. aeruginosa PAO1, of antibiotic by 8 µg/mL (5 µM) compound 3): 1 fold
Interpretation ([2]; A. baumannii 92247 (colistin-resistant), antibiotic + compound 1): Synergy (FIC indices of ≤0.5 is synergistic)
MICantibiotic + compound ([2]; A. baumannii 92247 (colistin-resistant), antibiotic MIC with 4 µg/mL (2 µM) compound 1): 0.031 µg/mL
MICantibiotic ([2]; A. baumannii 92247 (colistin-resistant)): 4 µg/mL
Potentiation ([2]; A. baumannii 92247 (colistin-resistant), of antibiotic by 4 µg/mL (2 µM) compound 1): 128 fold
Interpretation ([2]; A. baumannii 110193, antibiotic + compound 1): Synergy (FIC indices of ≤0.5 is synergistic)
MICantibiotic + compound ([2]; A. baumannii 110193, antibiotic MIC with 4 µg/mL (2 µM) compound 1): 0.004 µg/mL
MICantibiotic ([2]; A. baumannii 110193): 4 µg/mL
Potentiation ([2]; A. baumannii 110193, of antibiotic by 4 µg/mL (2 µM) compound 1): ≥1024-fold
Interpretation ([2]; A. baumannii AB027, antibiotic + compound 1): Synergy (FIC indices of ≤0.5 is synergistic)
MICantibiotic + compound ([2]; A. baumannii AB027, antibiotic MIC with 4 µg/mL (2 µM) compound 1): 0.004 µg/mL
MICantibiotic ([2]; A. baumannii AB027): 2 µg/mL
Potentiation ([2]; A. baumannii AB027, of antibiotic by 4 µg/mL (2 µM) compound 1): ≥512-fold
Interpretation ([2]; A. baumannii AB031, antibiotic + compound 1): Synergy (FIC indices of ≤0.5 is synergistic)
MICantibiotic + compound ([2]; A. baumannii AB031, antibiotic MIC with 4 µg/mL (2 µM) compound 1): 0.004 µg/mL
MICantibiotic ([2]; A. baumannii AB031): 4 µg/mL
Potentiation ([2]; A. baumannii AB031, of antibiotic by 4 µg/mL (2 µM) compound 1): ≥1024-fold
Interpretation ([2]; A. baumannii ATCC 17978, antibiotic + compound 1): Synergy (FIC indices of ≤0.5 is synergistic)
Interpretation ([2]; A. baumannii ATCC 17978, antibiotic + compound 3): Additive (0.5 < × ≤ 4 is additive)
MICantibiotic + compound ([2]; A. baumannii ATCC 17978, antibiotic MIC with 8 µg/mL (5 µM) compound 3): 2 µg/mL
MICantibiotic + compound ([2]; A. baumannii ATCC 17978, antibiotic MIC with ¼ MIC (≤5 µM) of compound 1): 0.016 µg/mL
MICantibiotic ([2]; A. baumannii ATCC 17978): 8 µg/mL and 4 µg/mL
Potentiation ([2]; A. baumannii ATCC 17978, of antibiotic by 8 µg/mL (5 µM) compound 3): 2 fold
Potentiation ([2]; A. baumannii ATCC 17978, of antibiotic by ¼ MIC (≤5 µM) of compound 1): ≥512-fold
Interpretation [3, 10]: Synergy (FIC indices of ≤0.5 is synergistic)
MICantibiotic + compound [3, 10]: 0.5 µg/mL
MICantibiotic [3, 10]: >16 µg/mL
Potentiation [3, 10]: ≥32-fold
Interpretation [3, 11]: Synergy (FIC indices of ≤0.5 is synergistic)
MICantibiotic + compound [3, 11]: 0.5 µg/mL
MICantibiotic [3, 11]: 8 µg/mL
Potentiation [3, 11]: 16 fold
Interpretation [4, 12]: Synergy (FIC indices of ≤0.5 is synergistic)
MICantibiotic + compound [4, 12]: 2 µg/mL
MICantibiotic [4, 12]: 32 µg/mL
Potentiation [4, 12]: 16 fold
Interpretation ([4]; K. pneumoniae 116381): Synergy (FIC indices of ≤0.5 is synergistic)
MICantibiotic + compound ([4]; K. pneumoniae 116381): 0.25 µg/mL
MICantibiotic ([4]; K. pneumoniae 116381): >256 µg/mL
Potentiation ([4]; K. pneumoniae 116381): ≥2048-fold
Interpretation ([5]; antibiotic + compound 1): Synergy (FIC indices of ≤0.5 is synergistic)
MICantibiotic + compound ([5]; antibiotic MIC with 8 µg/mL (5 µM) compound 1): 1 µg/mL
MICantibiotic ([5]; antibiotic alone): >4 µg/mL
Potentiation ([5]; of antibiotic by 8 µg/mL (5 µM) compound 1): ≥8-fold
Potentiation [6, 13]: 1 fold
Interpretation ([6]; rifampicin + compound 1): Additive (0.5 < × ≤ 4 is additive)
MICantibiotic + compound [6, 14]: 0.5 µg/mL
MICantibiotic ([6]; rifampicin alone): 0.5 µg/mL
Potentiation [7, 13]: 1 fold
Interpretation ([7]; rifampicin + compound 1): Additive (0.5 < × ≤ 4 is additive)
MICantibiotic + compound [7, 14]: 0.031 µg/mL
MICantibiotic ([7]; rifampicin alone): 0.031 µg/mL
Potentiation [8, 13]: 1 fold
Interpretation ([8]; rifampicin + compound 1): Additive (0.5 < × ≤ 4 is additive)
MICantibiotic + compound [8, 14]: 512 µg/mL
MICantibiotic ([8]; rifampicin alone): 512 µg/mL
clinical isolates in which the antibiotic was synergized by compound 1 [9]: 13 (93%) strains
